Patent US8507684B2, “1-cyclopropyl-8-methyl-7-[5-methyl-6-(methylamino)-3-pyridinyl]-4-oxo-1,4-dihydro-3-quinolinecarboxylic acid salts” (Ferrer Internacional S.A., priority 2010, dated 2013)

Assay: Aqueous solubility of the salts determined by HPLC
Format: physicochemical
Details: for pH: pH of Table 2 for the aqueous solubility samples (water, 2 h at 20° C.); for solubility at 2 h: thermodynamic from solid, read-out: Solubility in H2O
Method: To determine the aqueous solubility of the salts, suspensions of the salts were shaken 2 h at 20° C. and 400 rpm. Afterwards the mixtures were filtered (0.1 μm centrifuge filter) and the concentrations were determined by HPLC.

[1] = suspension in water shaken 2 h at 20° C. and 400 rpm, filtered (0.1 μm), concentration by HPLC

1-Cyclopropyl-8-methyl-7-[5-methyl-6-(methylamino)-3-pyridinyl]-4-oxo-1,4-dihydro-3-quinolinecarboxylic acid hemi-fumarate salt
pH: 4.8 | Solubility in H2O [1]: 0.0897 mg/mL

CNc1ncc(-c2ccc3c(=O)c(C(=O)O)cn(C4CC4)c3c2C)cc1C.O=C(O)CC(O)(CC(=O)O)C(=O)O [Citrate, 1-Cyclopropyl-8-methyl-7-[5-methyl-6-(methylamino)-3-pyridinyl]-4-oxo-1,4-dihydro-3-quinolinecarboxylic acid citrate salt]
pH: 2.7 | solubility at 2 h [1]: 5220 µg/mL

CNc1ncc(-c2ccc3c(=O)c(C(=O)O)cn(C4CC4)c3c2C)cc1C [Free drug, 1-Cyclopropyl-8-methyl-7-[5-methyl-6-(methylamino)-3-pyridinyl]-4-oxo-1,4-dihydro-3-quinolinecarboxylic acid]
solubility in water (in words) (general statement, no conditions given): low solubility in water | pH: 8.5 | solubility at 2 h [1]: 19 µg/mL

CNc1ncc(-c2ccc3c(=O)c(C(=O)O)cn(C4CC4)c3c2C)cc1C.Cl.O [Hydrochloride monohydrate, 1-Cyclopropyl-8-methyl-7-[5-methyl-6-(methylamino)-3-pyridinyl]-4-oxo-1,4-dihydro-3-quinolinecarboxylic acid hydrochloride monohydrate salt]
pH: 2.8 | solubility at 2 h [1]: 2000 µg/mL

CNc1ncc(-c2ccc3c(=O)c(C(=O)O)cn(C4CC4)c3c2C)cc1C.O=C(O)C(O)C(O)C(=O)O [L-Tartrate, 1-Cyclopropyl-8-methyl-7-[5-methyl-6-(methylamino)-3-pyridinyl]-4-oxo-1,4-dihydro-3-quinolinecarboxylic acid L-tartrate salt]
pH: 2.5 | solubility at 2 h [1]: 4600 µg/mL

CNc1ncc(-c2ccc3c(=O)c(C(=O)O)cn(C4CC4)c3c2C)cc1C.O=C(O)/C=C\C(=O)O [Maleate, 1-Cyclopropyl-8-methyl-7-[5-methyl-6-(methylamino)-3-pyridinyl]-4-oxo-1,4-dihydro-3-quinolinecarboxylic acid maleate salt]
pH: 5.3 | solubility at 2 h [1]: 149 µg/mL

CNc1ncc(-c2ccc3c(=O)c(C(=O)O)cn(C4CC4)c3c2C)cc1C.CS(=O)(=O)O [Mesylate, 1-Cyclopropyl-8-methyl-7-[5-methyl-6-(methylamino)-3-pyridinyl]-4-oxo-1,4-dihydro-3-quinolinecarboxylic acid mesylate salt]
pH: 2.4 | solubility at 2 h [1]: 113000 µg/mL

CNc1ncc(-c2ccc3c(=O)c(C(=O)[O-])cn(C4CC4)c3c2C)cc1C.[K+] [Potassium, 1-Cyclopropyl-8-methyl-7-[5-methyl-6-(methylamino)-3-pyridinyl]-4-oxo-1,4-dihydro-3-quinolinecarboxylic acid potassium salt]
pH: 9.8 | solubility at 2 h [1]: 109000 µg/mL

CNc1ncc(-c2ccc3c(=O)c(C(=O)[O-])cn(C4CC4)c3c2C)cc1C.[Na+] [Sodium, 1-Cyclopropyl-8-methyl-7-[5-methyl-6-(methylamino)-3-pyridinyl]-4-oxo-1,4-dihydro-3-quinolinecarboxylic acid sodium salt]
pH: 9.0 | solubility at 2 h [1]: 159000 µg/mL
